Biological target: T1, Recombinant human renin (Homo sapiens, UniProt P00797)
T1 construct: isolate the active form (residues 67-406); made in house; host or cells: FreeStyle 293-F cells (transient expression of pcDNA3.1(+)/hREN)
T1 sequence (P00797 67-406): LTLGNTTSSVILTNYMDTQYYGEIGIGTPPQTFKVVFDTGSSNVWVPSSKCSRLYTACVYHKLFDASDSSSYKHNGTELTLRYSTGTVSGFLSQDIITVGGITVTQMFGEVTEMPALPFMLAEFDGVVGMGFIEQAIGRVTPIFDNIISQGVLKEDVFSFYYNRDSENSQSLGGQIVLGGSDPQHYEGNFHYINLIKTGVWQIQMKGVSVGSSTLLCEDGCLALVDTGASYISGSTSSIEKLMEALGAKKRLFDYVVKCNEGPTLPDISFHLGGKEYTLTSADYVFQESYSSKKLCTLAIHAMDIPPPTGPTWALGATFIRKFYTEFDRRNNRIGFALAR
Assay: In vitro enzymatic activity assay of renin inhibitors (fluorogenic peptide substrate)
Type: biochemical
Conditions: not given
Summary of the method: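 Enzyme: recombinant human renin, 3 nM final, 10 min compound pre-incubation at 37 °C; buffer 50 mM Hepes pH 7.4 with 0.1 mg/mL BSA or extra 2% BSA; 5% DMSO.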

Structure (SMILES) | IC50
COCCCn1c([C@@H]2CCCN(C(=O)C[C@H](N)CNC(=O)Nc3ccccc3Cl)C2)nc2ccccc21 [Compound 257, 1-((S)-2-amino-4-((R)-3-(1-(3-methoxypropyl)-1H-benzo[d]imidazol-2-yl)piperidin-1-yl)-4-oxobutyl)-3-(2-chlorophenyl)urea] | < 100 nM

Same assay, conditions: isomers separated by preparative SFC; more or less active isomer as renin inhibitor

Structure (SMILES) | Eutomer / distomer designation of the separated stereoisomers
Cc1nc2ccccc2n1[C@H]1CCCN(C(=O)C[C@H](N)Cc2ccc3ccccc3c2)C1 [Compound 244, (R)-3-amino-1-((S)-3-(2-methyl-1H-benzo[d]imidazol-1-yl)piperidin-1-yl)-4-(naphthalen-2-yl)butan-1-one] | Eutomer
Cc1nc2ccccc2n1[C@@H]1CCCN(C(=O)C[C@H](N)Cc2ccc3ccccc3c2)C1 [Compound 245, (R)-3-amino-1((R)-3-(2-methyl-1H-benzo[d]imidazol-1-yl)piperidin-1-yl)-4-(naphthalen-2-yl)butan-1-one] | Distomer
COCCCn1c([C@]2(O)CCCN(C(=O)C[C@H](N)Cc3ccc(Cl)cc3)C2)nc2ccccc21 [Compound 247, (R)-3-amino-4-(4-chlorophenyl)-1-((S)-3-hydroxy-3-(1-(3-methoxypropyl)-1H-benzo[d]imidazol-2-yl)piperidin-1-yl)butan-1-one] | Distomer

Same assay, conditions: read-out: IC50 of Exemplified Compounds Against Renin

Structure (SMILES) | IC50
COCCCn1c([C@@H]2CCCN(C(=O)C[C@H](N)Cc3ccc(N4CCC(CCO)CC4)cc3)C2)nc2ccccc21 [Compound 236, (R)-3-amino-4-(4-(4-(2-hydroxyethyl)piperidin-1-yl)phenyl)-1-((R)-3-(1-(3-methoxypropyl)-1H-benzo[d]imidazol-2-yl)piperidin-1-yl)butan-1-one] | < 100 nM
COCCCn1c([C@@H]2CCCN(C(=O)C[C@H](N)Cc3ccc(N4CCC(C(=O)OC)CC4)cc3)C2)nc2ccccc21 [Compound 237, methyl 1-(4-((R)-2-amino-4-((R)-3-(1-(3-methoxypropyl)-1H-benzo[d]imidazol-2-yl)ppiperidin-1-yl)-4-oxobutyl)phenyl)piperidine-4-carboxylate] | 100 to 1000 nM
COCCCn1c([C@@H]2CCCN(C(=O)C[C@H](N)Cc3ccc(Oc4ccccc4)cc3)C2)nc2ccccc21 [Compound 238, (R)-3-amino-1((R)-3-(1-(3-methoxypropyl)-1H-benzo[d]imidazol-2-yl)piperidin-1-yl)-4-(4-phenoxyphenyl)butan-1-one] | < 100 nM
CC(=O)NCCn1c([C@@H]2CCCN(C(=O)C[C@H](N)Cc3ccc4ccccc4c3)C2)nc2ccccc21 [Compound 239, N-(2-(2-((R)-1((R)-3-amino-4-(naphthalen-2-yl)butanoyl)piperidin-3-yl)-1H-benzo[d]imidazol-1-yl)ethyl)acetamide] | 100 to 1000 nM
COCCCn1c([C@@H]2CCCN(C(=O)[C@H](Cc3ccccc3)C(N)Cc3ccc(Cl)cc3)C2)nc2ccccc21 (stereo partly drawn) [Compound 240, (R)-3-amino-2-benzyl-4-(4-chlorophenyl)-1-((R)-3-(1-(3-methoxypropyl)-1H-benzo[d]imidazol-2-yl)piperidin-1-yl)butan-1-one] | > 1000 nM
COCCCn1c([C@@H]2CCCN(C(=O)C[C@H](N)Cc3ccc4ccccc4c3)C2)nc2c1CCCC2 [Compound 241, (R)-3-amino-1((R)-3-(1-(3-methoxypropyl)-4,5,6,7-tetrahydro-1H-benzo[d]imidazol-2-yl)piperidin-1-yl)-4-(naphthalen-2-yl)butan-1-one] | 100 to 1000 nM
COCCCn1c(C(C)(C)C)cnc1C1(O)CCCN(C(=O)C[C@H](N)Cc2ccc(-c3ccc(C(=O)OC)cc3)cc2)C1 (stereo partly drawn) [Compound 242, methyl 4′-((2R)-2-amino-4-(3-(5-tert-butyl-1-(3-methoxypropyl)-1H-imidazol-2-yl)-3-hydroxypiperidin-1-yl)-4-oxobutyl)biphenyl-4-carboxylate] | > 1000 nM
COCCCc1nc2ccccc2n1[C@@H]1CCCN(C(=O)C[C@H](N)Cc2ccc3ccccc3c2)C1 [Compound 243, (R)-3-amino-1-((R)-3-(2-(3-methoxypropyl)-1H-benzo[d]imidazol-1-yl)piperidin-1-yl)-4-(naphthalen-2-yl)butan-1-one] | > 1000 nM
Cc1nc2ccccc2n1[C@H]1CCCN(C(=O)C[C@H](N)Cc2ccc3ccccc3c2)C1 [Compound 244, (R)-3-amino-1-((S)-3-(2-methyl-1H-benzo[d]imidazol-1-yl)piperidin-1-yl)-4-(naphthalen-2-yl)butan-1-one] | > 1000 nM
Cc1nc2ccccc2n1[C@@H]1CCCN(C(=O)C[C@H](N)Cc2ccc3ccccc3c2)C1 [Compound 245, (R)-3-amino-1((R)-3-(2-methyl-1H-benzo[d]imidazol-1-yl)piperidin-1-yl)-4-(naphthalen-2-yl)butan-1-one] | > 1000 nM
COCCCn1c(C2CC(C)CN(C(=O)C[C@H](N)Cc3ccc4ccccc4c3)C2)nc2ccccc21 (stereo partly drawn) [Compound 246, (3R)-3-amino-1-(3-(1-(3-methoxypropyl)-1H-benzo[d]imidazol-2-yl)-5-methylpiperidin-1-yl)-4-(naphthalen-2-yl)butan-1-one] | > 1000 nM
COCCCn1c([C@]2(O)CCCN(C(=O)C[C@H](N)Cc3ccc(Cl)cc3)C2)nc2ccccc21 [Compound 247, (R)-3-amino-4-(4-chlorophenyl)-1-((S)-3-hydroxy-3-(1-(3-methoxypropyl)-1H-benzo[d]imidazol-2-yl)piperidin-1-yl)butan-1-one] | > 1000 nM
COCCCn1c([C@@]2(O)CCCN(C(=O)C[C@H](N)Cc3ccc(Cl)cc3)C2)nc2ccccc21 [Compound 248, (R)-3-amino-4-(4-chlorophenyl)-1((R)-3-hydroxy-3-(1-(3-methoxypropyl)-1H-benzo[d]imidazol-2-yl)piperidin-1-yl)butan-1-one] | > 1000 nM
COCCCn1c([C@@H]2CCCN(C(=O)C[C@H](N)CNC(=O)c3ccc4ccccc4c3)C2)nc2ccccc21 [Compound 249, N-((S)-2-amino-4-((R)-3-(1-(3-methoxypropyl)-1H-benzo[d]imidazol-2-yl)piperidin-1-yl)-4-oxobutyl)-2-naphthamide] | < 100 nM
COCCCn1c([C@@H]2CCCN(C(=O)C[C@H](N)CNC(=O)Nc3ccccc3OC)C2)nc2ccccc21 [Compound 250, 1-((S)-2-amino-4-((R)-3-(1-(3-methoxypropyl)-1H-benzo[d]imidazol-2-yl)piperidin-1-yl)-4-oxobutyl)-3-(2-methoxyphenyl)urea] | < 100 nM
COCCCn1c([C@@H]2CCCN(C(=O)C[C@H](N)CNC(=O)c3ccc(-c4ccccc4)o3)C2)nc2ccccc21 [Compound 251, N-((S)-2-amino-4-((R)-3-(1-(3-methoxypropyl)-1H-benzo[d]imidazol-2-yl)piperidin-1-yl)-4-oxobutyl)-5-phenylfuran-2-carboxamide] | < 100 nM
COCCCn1c([C@@H]2CCCN(C(=O)C[C@H](N)CNC(=O)c3ccc(-c4ccccc4)s3)C2)nc2ccccc21 [Compound 252, N-((S)-2-amino-4-((R)-3-(1-(3-methoxypropyl)-1H-benzo[d]imidazol-2-yl)piperidin-1-yl)-4-oxobutyl)-5-phenylthiophene-2-carboxamide] | < 100 nM
COCCCn1c([C@@H]2CCCN(C(=O)C[C@H](N)CNC(=O)Nc3ccc(OC)cc3)C2)nc2ccccc21 [Compound 253, 1-((S)-2-amino-4-((R)-3-(1-(3-methoxypropyl)-1H-benzo[d]imidazol-2-yl)piperidin-1-yl)-4-oxobutyl)-3-(4-methoxyphenyl)urea] | < 100 nM
COCCCn1c([C@@H]2CCCN(C(=O)C[C@H](N)CNC(=O)Nc3cccc(OC)c3)C2)nc2ccccc21 [Compound 254, 1-((S)-2-amino-4-((R)-3-(1-(3-methoxypropyl)-1H-benzo[d]imidazol-2-yl)piperidin-1-yl)-4-oxobutyl)-3-(3-methoxyphenyl)urea] | < 100 nM
COCCCn1c([C@@H]2CCCN(C(=O)C[C@H](N)CNC(=O)Nc3ccc(Cl)c(Cl)c3)C2)nc2ccccc21 [Compound 255, 1-((S)-2-amino-4-((R)-3-(1-(3-methoxypropyl)-1H-benzo[d]imidazol-2-yl)piperidin-1-yl)-4-oxobutyl)-3-(3,4-dichlorophenyl)urea] | < 100 nM
COCCCn1c([C@@H]2CCCN(C(=O)C[C@H](N)CNC(=O)Nc3cccc(Cl)c3)C2)nc2ccccc21 [Compound 256, 1-((S)-2-ainino-4-((R)-3-(1-(3-methoxypropyl)-1H-benzo[d]imidazol-2-yl)piperidin-1-yl)-4-oxobutyl)-3-(3-chlorophenyl)urea] | < 100 nM
COCCCn1c([C@@H]2CCCN(C(=O)C[C@H](N)CNC(=O)Nc3ccc4c(c3)OCCO4)C2)nc2ccccc21 [Compound 258, 1-((S)-2-amino-4-((R)-3-(1-(3-methoxypropyl)-1H-benzo[d]imidazol-2-yl)piperidin-1-yl)-4-oxobutyl)-3-(2,3-dihydrobenzo[b][1,4]dioxin-6-yl)urea] | < 100 nM
COCCCn1c([C@@H]2CCCN(C(=O)C[C@H](N)CNC(=O)c3ccc(-c4cccs4)cc3)C2)nc2ccccc21 [Compound 259, N-((S)-2-amino-4-((R)-3-(1-(3-methoxypropyl)-1H-benzo[d]imidazol-2-yl)piperidin-1-yl)-4-oxobutyl)-4-(thiophen-2-yl)benzamide] | < 100 nM
COCCCn1c([C@@H]2CCCN(C(=O)C[C@H](N)CNC(=O)c3ccc(-c4ccccc4F)o3)C2)nc2ccccc21 [Compound 260, N-((S)-2-amino-4-((R)-3-(1-(3-methoxypropyl)-1H-benzo[d]imidazol-2-yl)piperidin-1-yl)-4-oxobutyl)-5-(2-fluorophenyl)furan-2-carboxamide] | < 100 nM
COCCCn1c([C@@H]2CCCN(C(=O)C[C@H](N)CNC(=O)c3ccc(-c4ccsc4)cc3)C2)nc2ccccc21 [Compound 261, N-((S)-2-amino-4-((R)-3-(1-(3-methoxypropyl)-1H-benzo[d]imidazol-2-yl)piperidin-1-yl)-4-oxobutyl)-4-(thiophen-3-yl)benzamide] | < 100 nM
COCCCn1c([C@@H]2CCCN(C(=O)C[C@H](N)CNC(=O)c3ccc(Cl)c(Cl)c3)C2)nc2ccccc21 [Compound 262, N-((S)-2-amino-4-((R)-3-(1-(3-methoxypropyl)-1H-benzo[d]imidazol-2-yl)piperidin-1-yl)-4-oxobutyl)-3,4-dichlorobenzamide] | 100 to 1000 nM
